In publication PMC6571673, “Cytostatic and Cytotoxic Natural Products against Cancer Cell Models” (Molecules, 2019):
Read-outs that look alike come from different tables or passages of the source.

How the values were obtained:
[1] = test system: SUP-B15; test: CTG viability assay (CellTiter-Glo, 72 h); format: cell-based, human
Procedure: (§1) All human cell lines were incubated at 37 °C in a 5% CO2 atmosphere and maintained under sterile conditions. Cells were tested for Mycoplasma (Lonza, Alpharetta, GA, USA) using the manufacturer’s conditions prior to experiments. Cell lines were purchased from American Type Culture Collection (ATCC, Manassas, VA, USA) or Leibniz-Institute Deutsche Sammlung von Mikroorganismen und Zellkulturen GmbH (DSMZ, Braunschweig, Germany) and cultured without antibiotics unless stated. Leukemia cells were cultured in RPMI and supplemented with 10% fetal bovine serum (FBS, Hyclone, Logan, UT, USA). SUP-B15, and KOPN-8 lines were cultured in RPMI supplemented with 10% FBS (Hyclone), 1% GlutaMAX™, 1% Pen/Step, and 0.1% β-mercaptoethanol. BJ cells were cultured in EMEM media supplemented with 10% FBS (Hyclone). Breast cancer cells (MDA-MB-231 & SUM149) were cultured in DMEM and Ham’s F12 respectively, supplemented with 10% FBS, 1% GlutaMAX™, 1% Pen/Step, and 2 µM cortisol/1 µg/mL insulin for SUM149. Both cells were grown to 80% confluence densities as recommended by ATCC. PBMCs were supplemented with concanavalin-A (5 μg/mL) and IL-2 (50 U/ml). To test general cytotoxicity, the following cell numbers were used for 384 well plates: KOPN-8 (ACC 552, infant human B cell precursor acute lymphoblastic leukemia with MLL-MLLt1/ENL fusion, 1000 cells/well), SUP-B15 (ACC389, human B cell precursor acute lymphoblastic leukemia of pediatric second relapse carrying the ALL-variant (m-bcr) of BCR-ABL1 fusion gene (e1-a2), 1600 cells/well), NALM-06 (DSMZ ACC128, non-T/non-B ALL at relapse with P15INK4B and P16INK4A deletions, 1200 cells/well), UoC-B1 (pediatric BCP-ALL at second relapse with TCF3/E2A-HFL fusion, 1000 cells/well), BJ (CRL-2522, normal human foreskin fibroblast cells, 400 cells/well) and PBMCs (periphery blood monocyte cells from healthy donors, IBC#BDC046, 10,000 cells/well).
(§2) Cytotoxicity evaluation was performed using the CellTiter-Glo Luminescent Cell Viability Assay kit (G7570, Promega, Madison, WI, USA), according to the manufacturer’s instructions. Briefly, the cell concentrations used were experimentally determined to ensure logarithmic growth during the 72-h duration of the experiment, and avoid adverse effects on cell growth by DMSO exposure. 1 × 10^3–4.8 × 10^3 or 4 × 10^2–1.2 × 10^3 cells/well were seeded in 96 or 384-well white flat-bottomed plates (3610 or 8804BC, Corning, Corning, NY, USA) in 100 µL or 30 µL/well, respectively. The plates were incubated at 37 °C in 5% CO2 for 24 h before drugging. Test compounds (10 mM in DMSO) in nine 3-fold serial dilutions were dispensed via pintool (Biomek liquid handler, Beckman, Indianapolis, USA) to assay plates. The final concentration of DMSO was 0.3% (v/v) in each well. The positive controls included staurosporine (10 μM), and gambogic acid (10 μM). The plates were incubated for 72 h at 37 °C in 5% CO2, then quenched with CellTiter-Glo® (Promega, Madison, WI, USA, 50 µL/96 or 30 µL/384), centrifuged at 1000 rpm for 1 min and incubated at RT for 20 min. Luminescence was recorded with a plate reader (Envision, Perkin Elmer, Waltham, MA, USA). The mean luminescence of each experimental treatment group was normalized as a percentage of the mean intensity of untreated controls. EC50 values were calculated by Pipeline Pilot software (Accelrys, Enterprise Platform, San Diego, CA, USA).

[2] = test system: BJ; test: CTG viability assay (CellTiter-Glo, 72 h); format: cell-based, human; details: for EC50: Homo sapiens, BJ, CellTiter-Glo, 72 h, non-cancerous cells
Procedure: as §1, §2

[3] = test system: SUP-B15; test: ApoTox-Glo triplex assay; format: cell-based, human; details: SUP-B15, 36 h; 9 0.2–100 µM, 10 0.02–10 µM
Procedure: Cells (9.5 × 10^4 cells/well in 75 µL) were dispensed in 96-well black flat bottom (8807BC, Corning) plates. The cells were incubated for 12 h at 37 °C and treated with compounds (25 µL) for 36 h. DMSO was used as a negative control and camptothecan was used as the positive control. Then, the experiment was stopped by adding the Viability/Cytotoxicity Reagent, and briefly mixed by orbital shaking (300–500 rpm for ~30 s). Plates were incubated for 30 min at 37 °C and fluorescence was measured at the wavelength 400Ex/505Em for viability and 485Ex/520Em for cytotoxicity in an Envision plate reader (Perkin Elmer). Finally, the Caspase-Glo® 3/7 Reagent was added, and the plates were mixed by orbital shaking (300–500 rpm for ~30 s), followed by an additional 30 min incubation at RT. Luminescence was recorded with a plate reader (Envision, Perkin Elmer) to capture caspase 3/7 activation and determine apoptosis induction.

[4] = Simulated gastric fluid (SGF) stability; format: in vitro ADME; details: read-out: SGF stability t1/2
From the text: (§3) To gain further information regarding intracellular compound localization, studies were extended to include a marker for the ER (Figure 8). The staining pattern for the individual probes are shown in Figure 8A (ER), Figure 8B (Lysosome) and Figure 8D (probe 9a). […] Moreover, when all three channels were merged, white specks were observed, indicating co-localization of probe 9a with cellular structures that are stained by both ER and lysosomal marker dyes (Figure 8F). […] These mechanisms provide a plausible explanation for the lower potency of compound 9 compared to compound 10. Finally, in vitro ADME (absorption, distribution, metabolism, and elimination) profiles were evaluated for compounds 9 and 10 to compare with the obtained cellular data (Supplementary Material, Figure S10). The aqueous solubility properties at physiological pH (7.40) of compounds 9 and 10 were good compared to controls. […] The combined findings indicate that the steric-effects of the hydroxysuccinate appendage of compound 10 renders it less prone to degradation by lysosomal activity or other competing cellular removal mechanisms.

[5] = PAMPA assay; format: in vitro ADME
From the text: as §3

[6] = test system: MDA-MB-231; test: Propidium iodide (PI) assay, 48 h; format: cell-based, human; details: MDA-MB-231, 48 h
Procedure: The first step was to evaluate if the compounds display cytotoxicity against the adherent cells. Propidium iodide (PI) assay was performed for the drug resistant solid tumor cellular models (triple negative breast cancer models: SUM149 and MDA-MB-231) for 48 h (Figure 5) [30, 31].

[7] = caco-2 permeability assay; format: in vitro ADME; details: human, read-out: efflux ratio, B2A/A2B
From the text: as §3

half-life [4]	PAMPA permeability [5]	SMILES	EC50 ([1]; Homo sapiens, SUP-B15, mean ± SEM of triplicates)	EC50 [2]	caspase 3/7 activity [3]	cytotoxicity by membrane integrity (bis-AAF-RF110) [3]	viability (GF-AFC) [3]	half-life ([4]; simulated gi fluid)	PAMPA permeability ([5]; PAMPA)	activity in PI assay [6]	efflux ratio [7]	EC50 ([1]; Homo sapiens, SUP-B15, 72 h, mean ± SEM of triplicates)	EC50 ([1]; mean ± SEM of triplicates)	activity against BJ ([2]; at the highest tested concentration (43.3 µM))
–	–	COC1=C[C@]23CCCN2CCc2cc4c(cc2[C@@H]3[C@@H]1O)OCO4 [Compound 9, cephalotaxine]	10.4 ± 0.75 µM	> 43.3 µM	increased caspase 3/7 activity	little cytotoxic effects	decreased viability	> 33 h	favorable permeability properties	substantial activity	~2	–	–	–
> 33 h	favorable permeability properties	COC(=O)C[C@](O)(CCCC(C)(C)O)C(=O)O[C@@H]1C(OC)=C[C@]23CCCN2CCc2cc4c(cc2[C@H]13)OCO4 [Compound 10, homoharringtonine, reference compound]	–	> 43.3 µM	increased caspase 3/7 activity	little cytotoxic effects	decreased viability	–	–	substantial activity	< 1	0.0452 µM	0.045 ± 0.005 µM	no observable activity
